The target in assay [1] is T1, CK1δ (h) (Homo sapiens, UniProt P48730).
T1 construct: purchased Upstate, UK (Kinase Profiler service)
Kind of assay: Upstate Kinase Profiler in vitro kinase assay, CK1δ. Type of assay: biochemical. Conditions: 10 μM ATP. Here is the method:
(§1) The potent inhibitory activity of the indoloazepines against checkpoint kinases Chk1 and Chk2 was determined. In vitro kinase Assay: Compound 2 was tested in vitro against the kinases indicated by Upstate, UK using a Kinase Profiler Assay according to the manufacturer's protocol. Briefly, in a final volume of 25 μl, the kinase was incubated with the desired buffer and the required polypeptide substrate, in presence of 10 mM magnesium acetate and γ-^33P-ATP (10 μM). After incubation for 40 minutes at room temperature, the reaction was stopped by the addition of 3% H3PO4 (5 μl). A 10 μl of the reaction was then spotted on a P30 filtermat and washed 3× in 75 mM H3PO4 and finally in methanol. Samples were then dried and signals counted on a scintillation counter. […] The results are shown in FIGS. 8 and 9 for CHK1 and CHK2.

Assay [2] deals with T2, PKCα (h) (Homo sapiens, UniProt P17252).
T2 construct: purchased Upstate, UK (Kinase Profiler service)
The assay can be described thus: Upstate Kinase Profiler in vitro kinase assay, PKCα. Type of assay: biochemical. Particulars: 10 μM ATP. Here is the method:
as §1

In assay [3] the test system is CEM leukemia cells. Kind of assay: Inhibition of cell growth in CEM leukemia cells (trypan blue counting). Type of assay: cell-based. Conditions: 48 hour, means of two experiments, standard deviation in parentheses. Here is the method: Cells were treated at different concentrations ranging from 10 ηM to 5 μM concentrations over a 48 hour time period.
CEM cells (CCRF-CEM; ATCC No. CCL-119, American Type Culture Collection, Manassas, Va.) were grown in RPMI-1640 Media (Gibco-BRL, Rockville, Md.) supplemented with 10% Fetal Bovine Serum, penicillin (614 r1 g/mL), streptomycin (10 μg/mL) and HEPES buffer, pH 7.2 at 37° C., 5% CO2. DMSO was used as the vector for all drugs and added in the control experiments. Cell cultures were then treated with 10 μM, 1 μM, 0.1 μM or 10 ηM of the drug in duplicate and allowed to incubate at 37° C., 5% CO2. Cells were stained with 4% trypan blue solution in PBS, and counted under the microscope (Thomas Scientific, Fisher Scientific) in duplicate. This was repeated for Oh, 2 h, 6 h, 12 h, 24 h, and 48 h. The data points obtained were then plotted and a point-to-point curve was drawn to determine the effect of the drug on the cells.

In assay [4] the test system is CDK1. Kind of assay: Inhibition of CDK1 (method of Meijer et al.). Type of assay: biochemical. From the text:
The inhibitory activity of compound 3 was less pronounced.

Assay [5] has as its target T3, MEK1 (h) (Homo sapiens, UniProt Q02750).
T3 construct: purchased Upstate, UK (Kinase Profiler service)
The assay can be described thus: Upstate Kinase Profiler in vitro kinase assay, MEK1. Format: biochemical. Conditions: 10 μM ATP. Here is the method:
as §1

Assay [6] concerns the target T4, CHK1 (Homo sapiens, UniProt O14757).
T4 sequence (O14757 1-476): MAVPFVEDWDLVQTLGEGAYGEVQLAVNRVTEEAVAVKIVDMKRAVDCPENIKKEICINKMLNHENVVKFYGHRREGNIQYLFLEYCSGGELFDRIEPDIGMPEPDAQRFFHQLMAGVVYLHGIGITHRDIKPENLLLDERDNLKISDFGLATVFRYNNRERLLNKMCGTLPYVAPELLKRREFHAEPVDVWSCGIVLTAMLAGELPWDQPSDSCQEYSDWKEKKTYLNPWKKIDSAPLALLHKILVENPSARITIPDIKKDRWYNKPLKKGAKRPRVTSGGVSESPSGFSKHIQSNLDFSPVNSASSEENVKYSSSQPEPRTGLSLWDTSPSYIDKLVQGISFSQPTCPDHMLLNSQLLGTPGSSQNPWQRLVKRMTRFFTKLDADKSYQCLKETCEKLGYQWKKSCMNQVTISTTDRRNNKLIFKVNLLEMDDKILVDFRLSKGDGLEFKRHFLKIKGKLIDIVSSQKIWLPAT
The assay can be described thus: Upstate Kinase Profiler in vitro kinase assay, CHK1. Particulars: 10 μM ATP. Format: biochemical. Here is the method: as §1, with “In” for “The potent inhibitory activity of the indoloazepines against checkpoint kinases Chk1 and Chk2 was determined. In”

The target of assay [7] is GSK-3β (Homo sapiens, UniProt P49841). Kind of assay: Inhibition of GSK-3β (method of Meijer et al.). Type of assay: biochemical.
Sequence of GSK-3β (P49841 whole entry, species assumed): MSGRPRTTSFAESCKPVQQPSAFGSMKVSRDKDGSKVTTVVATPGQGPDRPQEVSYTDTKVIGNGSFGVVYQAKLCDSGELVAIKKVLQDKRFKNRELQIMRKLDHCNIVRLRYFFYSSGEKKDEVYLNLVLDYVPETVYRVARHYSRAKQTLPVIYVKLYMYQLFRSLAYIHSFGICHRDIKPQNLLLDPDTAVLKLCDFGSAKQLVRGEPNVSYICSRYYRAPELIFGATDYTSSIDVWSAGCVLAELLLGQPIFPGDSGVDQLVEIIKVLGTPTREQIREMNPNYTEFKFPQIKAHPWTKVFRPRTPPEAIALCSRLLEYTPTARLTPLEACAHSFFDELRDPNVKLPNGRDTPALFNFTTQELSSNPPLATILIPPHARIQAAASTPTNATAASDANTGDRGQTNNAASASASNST
Assay [8] concerns TNF-α production. Kind of assay: Inhibition of TNF-α production measured by competitive EIA in LPS stimulated THP-1 cells. Format: cell-based, human. Conditions: EIA, 3 hr incubation, means of two experiments, standard deviation in parentheses. Here is the method:
(§2) Exposure of human Jurkat leukemia T-cells to phorbol myristate acetate (PMA/PHA) and THP-1 cells to lipopolysaccharide (LPS), activates NF-κB mediated gene transcription of several pro-inflammatory cytokines, including IL-2, IL-6, IL-8 and TNF-α (Baldwin, Ann. Rev. Immunol. 14: 649–683 (1996); Grilli et al., Int. Rev. Cytol. 143: 1–62 (1993)). […] The inhibition of IL-2 was evaluated in Jurkat cells after PMA/PHA activation (Mahon and O'Neill, J. Biol. Chem. 270: 28557–28564 (1995); Lindgren et al., Molec. Immunol. 38V 267–277 (2001)). The inhibition of TNF-α was evaluated in THP-1 cells after LPS activation (Aikawa et al., Inflamm. Res. 51: 188–194 (2002)). […] After 24 hours, the cell free supernatant fractions were collected and subjected to EIA for the quantification of total IL-2 production.
The assay measured the ability of the compounds to inhibit TNF-α production in LPS stimulated THP-1 cells (Aikawa et al., Inflamm. Res. 51V 188–194 (2002)).
THP-1 cells are grown in RPMI-1640 Media (Gibco-BRL, Rockville, Md.) supplemented with 5% fetal bovine serum, penicillin (614 ηg/mL), streptomycin (10 μg/mL) and HEPES buffer, pH 7.2 at 37° C., 5% CO2. To each well of a flat bottomed 96 well culture plate 0.2 mL 1×10^6 THP-1 cells/mL were added. Each sample was then treated in duplicate with the compounds in DMSO at either 10 μM, 1 μM, 0.1 μM or 10 ηM and allowed to incubate for thirty minutes at 37° C., 5% CO2. Cell free supernatant fractions were collected from stimulated cultures incubated for 3 hr at 37° C., 5% CO2. Cultures were stimulated with LPS (Sigma-Aldrich, St. Louis, Mo.) at 1 μg/mL. The concentration of TNF-α in each sample was then measured using a competitive enzyme immunoassay (Neogen Corporation, Lansing, Mich.) according to the manufacturer's protocol. To make a standard curve, known TNF-α concentrations were plotted and fitted to a 4 parameter logistic curve. Unknown concentrations were then extrapolated from the standard curve.

Assay [9] has as its system IL-2 production. Kind of assay: Inhibition of IL-2 production measured by competitive EIA in PMA/PHA-activated Jurkat T cells. Format: cell-based, human. Conditions: PMA/PHA-activated Jurkat T cells, EIA, means of two experiments, standard deviation in parentheses. Here is the method: as §2
To each well of a flat bottomed 96 well culture plate 0.2 mL 1×10^6 Jurkat E6-1 cells/mL were added. Each sample was then treated in duplicate with the compounds in DMSO at either 10 μM, 1 μM, 0.1 μM or 10 ηM and allowed to incubate for thirty minutes at 37° C., 5% CO2. Cell free supernatant fractions were collected from stimulated cultures incubated for 24 hr at 37° C., 5% CO2. Cultures were stimulated with phytohemagglutinin (PHA, Sigma-Aldrich, St. Louis, Mo.) at 1 μg/mL; and phorbol myristate acetate (PMA, Sigma-Aldrich, St. Louis, Mo.) at 50 ng/mL. The concentration of IL-2 in each sample was then measured using a competitive enzyme immunoassay (Neogen Corporation, Lansing, Mich.) according to the manufacturer's protocol. Known IL-2 concentrations were plotted and fit a 4 parameter logistic curve. Unknown concentrations were then extrapolated from the standard curve.

The target of assay [10] is T5, PKCβII (h) (Homo sapiens, UniProt P05771).
T5 construct: purchased Upstate, UK (Kinase Profiler service)
T5 sequence (P05771 1-673 isoform P05771-2): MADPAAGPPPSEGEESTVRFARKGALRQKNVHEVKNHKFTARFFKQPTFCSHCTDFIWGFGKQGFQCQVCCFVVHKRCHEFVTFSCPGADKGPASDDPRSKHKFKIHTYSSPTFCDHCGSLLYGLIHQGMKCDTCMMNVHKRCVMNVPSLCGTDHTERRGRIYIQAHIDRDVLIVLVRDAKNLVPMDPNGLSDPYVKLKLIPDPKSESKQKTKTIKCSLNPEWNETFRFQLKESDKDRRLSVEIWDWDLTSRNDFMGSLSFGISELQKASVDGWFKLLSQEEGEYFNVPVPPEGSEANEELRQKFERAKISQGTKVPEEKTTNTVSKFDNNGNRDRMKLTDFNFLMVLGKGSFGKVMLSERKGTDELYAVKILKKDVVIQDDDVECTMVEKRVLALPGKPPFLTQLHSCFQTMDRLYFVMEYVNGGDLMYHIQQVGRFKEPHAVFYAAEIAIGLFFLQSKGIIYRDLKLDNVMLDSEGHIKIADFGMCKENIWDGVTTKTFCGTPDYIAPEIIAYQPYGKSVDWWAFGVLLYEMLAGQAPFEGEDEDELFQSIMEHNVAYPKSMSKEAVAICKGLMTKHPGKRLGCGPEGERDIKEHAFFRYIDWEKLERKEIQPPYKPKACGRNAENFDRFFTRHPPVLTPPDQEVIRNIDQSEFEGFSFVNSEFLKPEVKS
The assay can be described thus: Upstate Kinase Profiler in vitro kinase assay, PKCβII. Format: biochemical. Particulars: 10 μM ATP. As to the method: as §1

Assay [11] addresses T6, CK2 (h) (Homo sapiens, UniProt P68400).
T6 construct: purchased Upstate, UK (Kinase Profiler service)
Kind of assay: Upstate Kinase Profiler in vitro kinase assay, CK2. Type of assay: biochemical. Particulars: 10 μM ATP. Here is the method: as §1

In assay [12] the target is T7, CHK2 (Homo sapiens, UniProt O96017).
T7 construct: purchased Upstate, UK (Kinase Profiler service)
T7 sequence (O96017 whole entry): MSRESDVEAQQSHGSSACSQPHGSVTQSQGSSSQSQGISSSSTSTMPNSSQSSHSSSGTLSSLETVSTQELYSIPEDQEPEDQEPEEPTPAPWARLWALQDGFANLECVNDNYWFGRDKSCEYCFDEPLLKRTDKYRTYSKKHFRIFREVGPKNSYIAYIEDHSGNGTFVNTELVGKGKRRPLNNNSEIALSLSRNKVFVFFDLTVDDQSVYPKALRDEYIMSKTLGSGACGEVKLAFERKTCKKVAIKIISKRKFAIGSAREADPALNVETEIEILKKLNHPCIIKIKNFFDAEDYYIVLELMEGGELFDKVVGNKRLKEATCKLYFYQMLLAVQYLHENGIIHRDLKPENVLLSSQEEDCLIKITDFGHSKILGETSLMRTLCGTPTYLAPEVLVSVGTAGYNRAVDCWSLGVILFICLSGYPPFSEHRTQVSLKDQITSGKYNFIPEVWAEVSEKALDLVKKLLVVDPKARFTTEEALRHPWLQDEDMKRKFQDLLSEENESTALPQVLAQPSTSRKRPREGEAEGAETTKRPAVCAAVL
Kind of assay: Upstate Kinase Profiler in vitro kinase assay, CHK2. Type of assay: biochemical. Conditions: 10 μM ATP. As to the method: as §1, with “In” for “The potent inhibitory activity of the indoloazepines against checkpoint kinases Chk1 and Chk2 was determined. In”

T6 sequence (P68400 whole entry): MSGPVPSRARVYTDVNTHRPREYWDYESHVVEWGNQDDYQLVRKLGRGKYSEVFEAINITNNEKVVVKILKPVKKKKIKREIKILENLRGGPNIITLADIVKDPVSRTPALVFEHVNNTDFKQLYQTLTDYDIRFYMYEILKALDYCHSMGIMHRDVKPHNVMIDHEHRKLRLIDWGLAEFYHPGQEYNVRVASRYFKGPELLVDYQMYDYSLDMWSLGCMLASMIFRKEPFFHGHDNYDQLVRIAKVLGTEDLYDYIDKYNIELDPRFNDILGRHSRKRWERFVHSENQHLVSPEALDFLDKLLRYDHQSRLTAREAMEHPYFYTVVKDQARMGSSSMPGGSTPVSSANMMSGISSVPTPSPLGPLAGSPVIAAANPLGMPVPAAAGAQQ
T6 sequence (P67870 whole entry partner): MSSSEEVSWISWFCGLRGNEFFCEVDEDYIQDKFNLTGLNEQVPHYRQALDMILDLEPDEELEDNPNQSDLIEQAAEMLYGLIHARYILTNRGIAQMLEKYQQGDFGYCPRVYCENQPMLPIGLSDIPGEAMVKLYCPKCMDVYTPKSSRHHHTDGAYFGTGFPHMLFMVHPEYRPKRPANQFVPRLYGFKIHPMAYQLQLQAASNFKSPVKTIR
T3 sequence (Q02750 whole entry): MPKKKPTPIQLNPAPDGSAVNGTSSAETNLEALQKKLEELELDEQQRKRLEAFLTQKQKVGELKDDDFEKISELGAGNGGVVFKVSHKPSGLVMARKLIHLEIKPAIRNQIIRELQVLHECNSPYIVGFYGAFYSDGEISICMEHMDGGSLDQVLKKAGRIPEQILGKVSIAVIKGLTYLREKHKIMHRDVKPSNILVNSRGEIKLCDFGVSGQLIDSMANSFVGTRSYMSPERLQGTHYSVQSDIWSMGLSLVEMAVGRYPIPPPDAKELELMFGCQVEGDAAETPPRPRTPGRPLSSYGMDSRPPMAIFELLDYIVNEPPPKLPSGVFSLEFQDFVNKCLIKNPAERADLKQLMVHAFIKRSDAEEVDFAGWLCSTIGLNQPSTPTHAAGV
T1 sequence (P48730 whole entry): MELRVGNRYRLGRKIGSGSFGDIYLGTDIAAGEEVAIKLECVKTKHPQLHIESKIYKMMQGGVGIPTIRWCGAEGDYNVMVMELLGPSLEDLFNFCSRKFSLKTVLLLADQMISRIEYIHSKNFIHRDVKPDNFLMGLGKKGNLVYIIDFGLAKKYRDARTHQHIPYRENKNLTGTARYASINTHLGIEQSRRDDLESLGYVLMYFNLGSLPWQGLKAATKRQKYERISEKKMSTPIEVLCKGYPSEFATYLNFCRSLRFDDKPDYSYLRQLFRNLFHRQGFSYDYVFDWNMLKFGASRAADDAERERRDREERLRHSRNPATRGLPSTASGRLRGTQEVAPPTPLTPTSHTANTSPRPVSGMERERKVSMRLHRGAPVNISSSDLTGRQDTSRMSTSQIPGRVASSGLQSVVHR

Consider `NC1=N/C(=C2/CCNC(=O)c3[nH]c4ccccc4c32)C(=O)N1` [Compound 2, 5-(2-amino-5-oxo-1,5-dihydro-imidazol-4-ylidene)-3,4,5,10-tetrahydro-2H-azepino[3,4-b]indol-1-one], for which the half-inhibitory concentration (IC50) in [1] came to 1350 nM; in assay [2], 2540 nM; in assay [4] it was 400 nM; in assay [5] it was 89 nM; in assay [6] it was 237 nM; in assay [7] it was 150 nM. Further, the concentration for half-maximal inhibition (IC50) in [8] is 8160 nM; in assay [8] (Homo sapiens, THP-1, 3 h), 8200 nM; in assay [9] (Homo sapiens, Jurkat, 24 h), 3500 nM; in assay [9] (24 hr), 3550 nM; in assay [10], 3380 nM; in assay [11], above 10000 nM. Moreover, in [12], half-maximal inhibition (IC50) was put at 8 nM. In addition, the concentration for 50% growth inhibition (GI50) in [3] is 1730 nM.
